# Patent US8519173B2, “Plant growth regulator” (Shiseido Company, Ltd., priority 2009, dated 2013)
# How the values were obtained:
# [1] = tested on: morning glory (variety: Murasaki); assay: Bud formation promotion activity on morning glory; assay type: in vivo; settings: sprayed at 100 μM; treatment in dark 14 h or 15 h; buds measured on day 14 under continuous light at 25° C.; N=8 plants; compared with water (FIG. 1)
# Description: 9 g of morning glory (variety: Murasaki) seeds were treated with concentrated sulfuric acid for 20 minutes followed by allowing to stand overnight in running water. Next, the seeds were allowed to take root by allowing to stand for 24 hours on wet sea sand with the omphalos portion of the seed facing upward. The seeds that had taken root were planted to a depth of about 1.5 cm to 2.0 cm in sea sand and cultured under continuous light (for about 5 days).
# All of the morning glory plants that foliated as a result of this culturing were transferred to a culture broth (containing KNO3 (250 mg), NH4NO3 (250 mg), KH2PO4 (250 mg), MgSO4.7H2O (250 mg), MnSO4.4H2O (1 mg), Fe-citrate-n-hydrate (6 mg), H3BO3 (2 mg), CuSO4.5H2O (0.1 mg), ZeSO4.7H2O (0.2 mg), Na2MoO4.2H2O (0.2 mg) and Ca(H2PO4)2.2H2O (250 mg) in 1000 mL of distilled water).
# 0.10 μM and 100 μM aqueous solutions of the present ketol fatty acid derivative obtained in the aforementioned Example 1 were sprayed onto this culture system and subjected to treatment in dark for 14 hours or 15 hours. Following this treatment in dark, water or the present ketol fatty acid derivative was sprayed again followed by growing the plants under continuous light for 14 days at 25° C. and measuring the buds that formed on day 14. […]
# [2] = Stability on standing at room temperature; assay type: physicochemical; settings: allowed to stand at room temperature
Compound,increase in number of buds that formed [1],stability (loss of activity) [2]
CC/C=C\CC1CC1CC(=O)C(O)CCCCCCCC(=O)O (centres unmarked),more than 200%,–
CC/C=C\C/C=C\CC(=O)C(O)CCCCCCCC(=O)O (stereo not drawn) [α-ketol unsaturated fatty acid],–,losing activity in a few days
